Measured values as given in patent publication US8410163B2, “Substituted 4-amino-5-benzoyl-2-(phenylamino)thiophene-3-carbonitriles and substituted 4-amino-5-benzoyl-2-(phenylamino)thiophene-3-carboxamides as tubulin polymerization inhibitors” (Telik, Inc., priority 2009, dated 2013).
Read-outs that look alike come from different tables or passages of the source.

Key:
[1] = test system: A549 (human lung adenocarcinoma); test: Cytotoxicity assay (CellTiter-Glo), A549; type: cell-based; details: 72 h, A549 cells, three days culture, rounded to 1 significant figure
Procedure: (§1) The cell lines A549 (human lung adenocarcinoma), OVCAR-3 (human ovarian carcinoma), HL60 (human promyelocytic leukemia), DLD1 (human colon adenocarcinoma) and HCT116 (human colon carcinoma) were obtained from the American Type Culture Collection, Manassas, Va., U.S.A. All products were used in accordance with manufacturer's directions. The histone phosphorylation (p-H3) assay was conducted in duplicate and the cytotoxicity assays were conducted in triplicate, in each case with solvent control.
(§2) Log-phase cells were trypsinized, collected by centrifugation, and resuspended in a small volume of fresh medium, and the density of viable cells was determined following Trypan Blue staining. Cells were diluted in fresh media, the test compounds (concentrations between 0.1 μM and 200 μM, dissolved in DMSO, 50 μL) added immediately after dilution to achieve a final DMSO concentration of 0.5%, then the suspensions added at 150 μL/well to 96-well plates, and incubated overnight to allow attachment in the case of adherent cells. The cells were cultured for three days (about three doubling times). The cells were then collected by centrifugation, and 100 μL of the culture supernatant was replaced by the CellTiter-Glo reagent. After incubation for 15 minutes at room temperature, the plate was read with a luminometer. […] The table gives cytotoxicity IC50s in μM, rounded to 1 significant figure.

[2] = test system: OVCAR-3 (human ovarian carcinoma); test: Cytotoxicity assay (CellTiter-Glo), OVCAR-3; type: cell-based; details: 72 h, OVCAR-3 cells, three days culture, rounded to 1 significant figure
Procedure: as §1, §2

[3] = test system: HL60 (human promyelocytic leukemia); test: Cytotoxicity assay (CellTiter-Glo), HL-60; type: cell-based; details: 72 h, HL-60 cells, three days culture, rounded to 1 significant figure
Procedure: as §1, §2

[4] = test system: DLD1 (human colon adenocarcinoma); test: Cytotoxicity assay (CellTiter-Glo), DLD1; type: cell-based; details: DLD-1, 72 h, DLD1 cells, three days culture, rounded to 1 significant figure
Procedure: as §1, §2

[5] = test system: HCT116 (human colon carcinoma); test: Cytotoxicity assay (CellTiter-Glo), HCT116; type: cell-based; details: HCT-116, 72 h, HCT116 cells, three days culture, rounded to 1 significant figure
Procedure: as §1, §2

tubulin = test: Inhibition of tubulin polymerization, cell-free fluorescence assay; type: biochemical
[6] = test system: HL60 (human promyelocytic leukemia) xenograft; test: HL60 xenograft assay, oral administration; type: in vivo; details: Mus musculus, HL-60, po, nu/nu mice, read-out: inhibition of tumor growth compared to vehicle
Procedure: (§3) Male athymic nu/nu mice, 6-8 weeks old (about 20 g), were implanted subcutaneously in the right fore flank with about 1×10^7 cells of the HL60 (human promyelocytic leukemia) line that had been grown in antibiotic-free medium for at least two passages. About 6 days after tumor implantation, when the tumor weight was about 50-250 mg, the mice were assigned to treatment groups. Test compounds were suspended at 20 mg/mL in 0.55 wt. % aqueous carboxymethylcellulose. Groups of mice were treated with compounds 2A, 9A, and 12A at 200 mg/Kg by gavage once/day on days 1-5 and 8-10 from the start of treatment, with vehicle control. Tumor growth inhibition was measured on the last day of treatment.
The experiment was conducted generally as described in In vivo Example 1. Groups of mice were treated with compounds 5A, 6A, 7A, 8A, and 10A at 200 mg/Kg by gavage once/day on days 1-5 and 8-10 from the start of treatment, with vehicle control. Tumor growth inhibition was measured the day after the last day of treatment.

[7] = test system: HCT116 (human colon carcinoma) xenograft; test: HCT116 xenograft assay, oral administration; type: in vivo; details: nu/nu mice, 200 mg/Kg by gavage once/day days 1-5 and 8-12, measured 2 days after the last day of treatment
Procedure: as §3, with “the HCT116” for “the HL60”, “(human colon carcinoma)” for “(human promyelocytic leukemia)”, “About 14-21” for “About 6”, “tumor transplantation,” for “tumor implantation,”, “and 8-12” for “and 8-10”, “measured 2 days after” for “measured on”

[8] = test system: P388 and P388/ADR (doxorubicin-resistant) cells; test: Cross-resistance, cytotoxicity in P388 and P388/ADR cells; type: cell-based, mouse; details: cytotoxicity in P388/ADR (doxorubicin-resistant) versus P388 cells
Procedure: Compounds 2A, 9A, and 12A were tested for cross-resistance in the P388 (mouse leukemia) cell line, by assaying its cytotoxicity in both P388 and P388/ADR (doxorubicin-resistant) cells. […] Several of the more cytotoxic compounds of formula A were tested and found not to be substrates for P-glycoprotein, an efflux pump commonly associated with multidrug-resistance in cancer cells.

[9] = 200 mg/Kg by gavage once/day days 1-5 and 8-10, measured on the last day of treatment (In vivo Example 1)
[10] = 200 mg/Kg by gavage once/day days 1-5 and 8-10, measured the day after the last day of treatment (In vivo Example 3)

Row | SMILES | IC50 [1] [nM] | IC50 [3] [nM] | also measured
1 | COc1ccc(Nc2sc(C(=O)c3ccc(Br)cc3)c(N)c2C#N)cc1 [Compound 3A] | 20 |  | 
2 | COc1ccc(C(=O)c2sc(Nc3ccc(OC)c(OC)c3)c(C#N)c2N)cc1 [Compound 28A] | 700 |  | 
3 | CCN(CC)c1ccc(C(=O)c2sc(Nc3ccc4c(c3)OCO4)c(C#N)c2N)cc1 [Compound 9A] | 40 | 40 | IC50 [2]: 20 nM; IC50 [4]: 20 nM; IC50 [5]: 40 nM; inhibition of tubulin polymerization (cell-free) (tubulin): inhibition of tubulin polymerization; inhibition in vivo at 200 mg/kg [6, 9]: 43%; inhibition of tumor growth compared to vehicle [7]: 36%
4 | COc1ccc(Nc2sc(C(=O)c3ccc(OC)cc3)c(N)c2C#N)cc1 [Compound 12A] | 50 | 40 | IC50 [2]: 30 nM; IC50 [4]: 40 nM; IC50 [5]: 40 nM; inhibition of tubulin polymerization (cell-free) (tubulin): inhibition of tubulin polymerization; inhibition in vivo at 200 mg/kg [6, 9]: 66%; inhibition of tumor growth compared to vehicle [7]: 46%
5 | N#Cc1c(Nc2ccc3c(c2)OCO3)sc(C(=O)c2ccc(F)cc2)c1N [Compound 33A] | 1000 |  | 
6 | N#Cc1c(Nc2ccc3c(c2)OCO3)sc(C(=O)c2ccc(Br)cc2)c1N [Compound 23A] | 300 |  | 
7 | COc1ccc(Nc2sc(C(=O)c3ccc(Cl)cc3)c(N)c2C(N)=O)cc1 [Compound 1A, 4-amino-5-(4-chlorobenzoyl)-2-[(4-methoxyphenyl)amino]thiophene-3-carboxamide] | 10 | 10 | IC50 [2]: 10 nM; IC50 [4]: 7 nM; IC50 [5]: 10 nM
8 | N#Cc1c(Nc2ccc3c(c2)OCO3)sc(C(=O)c2cccc(Cl)c2)c1N [Compound 35A] | 1000 |  | 
9 | CCOc1ccc(Nc2sc(C(=O)c3ccc(OC)cc3OC)c(N)c2C#N)cc1 [Compound 6A, 4-amino-5-(2,4-dimethoxybenzoyl)-2-[(4-ethoxyphenyl)amino]thiophene-3-carbonitrile] | 30 | 50 | IC50 [5]: 30 nM; inhibition in vivo at 200 mg/kg [6, 10]: 89%
10 | N#Cc1ccc(C(=O)c2sc(Nc3ccc4c(c3)OCO4)c(C#N)c2N)cc1 [Compound 20A] | 200 |  | 
11 | N#Cc1c(Nc2ccc(C(F)(F)F)cc2)sc(C(=O)c2ccc(Cl)cc2)c1N [Compound 31A] | 1000 |  | 
12 | COc1cc2c(c(OC)c1OC)-c1ccc(OC)c(=O)cc1[C@@H](NC(C)=O)CC2 [colchicine] |  |  | resistance ratio [8]: 70 fold
13 | COc1ccc(C(=O)c2sc(Nc3ccc4c(c3)OCO4)c(C#N)c2N)cc1OC [Compound 16A] | 100 | 60 | 
14 | COc1ccc(Nc2sc(C(=O)c3ccc(OC)cc3)c(N)c2C(N)=O)cc1 [Compound 8A] | 40 | 30 | IC50 [2]: 10 nM; IC50 [4]: 7 nM; inhibition in vivo at 200 mg/kg [6, 10]: 10%
15 | COc1ccc(C(=O)c2sc(Nc3ccc(OC)cc3OC)c(C#N)c2N)cc1 [Compound 32A] | 1000 |  | 
16 | COc1ccc(Nc2sc(C(=O)c3ccc(Cl)cc3)c(N)c2C#N)cc1OC [Compound 5A] | 20 | 20 | IC50 [2]: 20 nM; IC50 [4]: 20 nM; IC50 [5]: 20 nM; inhibition in vivo at 200 mg/kg [6, 10]: 45%
17 | NC(=O)c1c(Nc2ccc3c(c2)OCO3)sc(C(=O)c2ccc(Cl)cc2)c1N [Compound 27A, 4-amino-2-(1,3-benzodioxol-5-ylamino)-5-(4-chlorobenzoyl)thiophene-3-carboxamide] | 600 | 200 | IC50 [2]: 300 nM; IC50 [5]: 600 nM
18 | COc1cccc2c1C(=O)c1c(O)c3c(c(O)c1C2=O)C[C@@](O)(C(=O)CO)C[C@@H]3O[C@H]1C[C@H](N)[C@H](O)[C@H](C)O1 [doxorubicin] |  |  | resistance ratio [8]: 260 fold
19 | COc1ccc(Nc2sc(C(=O)c3ccc(OCCN(C)C)cc3)c(N)c2C#N)cc1 [Compound 39A] | 2000 |  | 
20 | N#Cc1c(Nc2ccc3c(c2)OCO3)sc(C(=O)c2ccc(Cl)cc2)c1N [Compound 24A] | 300 | 80 | 

Row | SMILES | IC50 [1] [nM] | IC50 [3] [nM] | also measured
21 | N#Cc1c(Nc2ccc([N+](=O)[O-])cc2)sc(C(=O)c2ccc(Cl)cc2)c1N [Compound 37A] | 2000 |  | 
22 | COc1ccc(Nc2sc(C(=O)c3ccc(OC)cc3OC)c(N)c2C#N)c(OC)c1 [Compound 22A] | 200 |  | 
23 | N#Cc1c(Nc2ccc3c(c2)OCO3)sc(C(=O)c2cccc(Br)c2)c1N [Compound 41A] | 2000 |  | 
24 | Cc1ccc(Nc2sc(C(=O)c3ccc(Cl)cc3)c(N)c2C#N)cc1 [Compound 14A] | 100 | 70 | IC50 [5]: 80 nM; inhibition of tubulin polymerization (cell-free) (tubulin): inhibition of tubulin polymerization
25 | CC(C)c1ccc(Nc2sc(C(=O)c3ccc(Cl)cc3)c(N)c2C#N)cc1 [Compound 29A] | 800 |  | 
26 | CCOc1ccc(Nc2sc(C(=O)c3ccc(Cl)cc3)c(N)c2C(N)=O)cc1 [Compound 13A] | 60 | 30 | 
27 | COc1ccccc1C(=O)c1sc(Nc2ccc3c(c2)OCO3)c(C#N)c1N [Compound 21A] | 200 |  | inhibition of tubulin polymerization (cell-free) (tubulin): inhibition of tubulin polymerization
28 | COc1ccc(C(=O)c2sc(Nc3ccc4c(c3)OCO4)c(C#N)c2N)cc1 [Compound 10A] | 40 | 40 | IC50 [2]: 40 nM; IC50 [4]: 30 nM; inhibition in vivo at 200 mg/kg [6, 10]: 67%
29 | CCOc1ccc(Nc2sc(C(=O)c3ccc(OC)cc3)c(N)c2C#N)cc1 [Compound 17A] | 100 | 100 | 
30 | CN(C)CCOc1ccc(Nc2sc(C(=O)c3ccc(Cl)cc3)c(N)c2C#N)cc1 [Compound 36A] | 1000 |  | 
31 | CC[C@]1(O)C[C@@H]2CN(CCc3c([nH]c4ccccc34)[C@@](C(=O)OC)(c3cc4c(cc3OC)N(C)[C@H]3[C@@](O)(C(=O)OC)[C@H](OC(C)=O)[C@]5(CC)C=CCN6CC[C@]43[C@@H]65)C2)C1 [vinblastine] |  |  | resistance ratio [8]: 50 fold
32 | N#Cc1c(Nc2ccc(F)cc2)sc(C(=O)c2ccc(Cl)cc2)c1N [Compound 38A] | 2000 |  | 
33 | N#Cc1cccc(C(=O)c2sc(Nc3ccc4c(c3)OCO4)c(C#N)c2N)c1 [Compound 34A] | 1000 |  | 
34 | Cc1ccc(C(=O)c2sc(Nc3ccc4c(c3)OCO4)c(C#N)c2N)cc1 [Compound 19A] | 200 |  | 
35 | CCOc1ccc(Nc2sc(C(=O)c3ccc(Cl)cc3)c(N)c2C#N)cc1 [Compound 4A] | 20 | 40 | IC50 [2]: 30 nM; IC50 [4]: 30 nM; IC50 [5]: 90 nM
36 | CCN(CC)c1ccc(C(=O)c2sc(Nc3ccc(OC)cc3OC)c(C#N)c2N)cc1 [Compound 26A] | 500 |  | 
37 | CCN(CC)c1ccc(C(=O)c2sc(Nc3ccc(OC)c(OC)c3)c(C#N)c2N)cc1 [Compound 11A] | 50 |  | 
38 | COC(=O)c1ccc(Nc2sc(C(=O)c3ccc(Cl)cc3)c(N)c2C#N)cc1 [Compound 30A] | 1000 |  | 
39 | COc1cccc(C(=O)c2sc(Nc3ccc4c(c3)OCO4)c(C#N)c2N)c1 [Compound 25A] | 500 |  | 
